Measurements reported in patent US20220024872A1, “ISOLATION AND CHARACTERIZATION OF ANTICANCER COMPOUND FROM SESUVIUM PORTULACASTRUM (L.) L” (priority 2019, published 2022).
In brackets after ≈: the same amount, converted by molar mass. Several values for one entry are separate records, joined by “and”; a condition that tells them apart may be missing. Equal entries are not always repeated.

What was measured:
[1] = system: human triple negative breast cancer cells (MDA-MB-231); assay: MTT cell proliferation assay, MDA-MB-231; assay type: cell-based
Method: (§1) Anticancer activity of crude extracts were evaluated against four cell lines, human triple negative breast cancer cells (MDA-MB-231), estrogen positive breast cancer cells (MCF-7), human neuroblastoma cells (IMR-32) and human colon cancer cells (HCT-116) that were procured from NCCS-Pune using 3-(4,5-Dimethylthiazol-2-Yl)-2,5-Diphenyltetrazolium Bromide (MTT) assay.
(§2) In vitro cytotoxic activity of all the extracts was determined by MTT assay as described by Manikandan et al. (2017) with slight modification. After trypsinization, viable cells were counted by trypan blue exclusion in a hemocytometer and diluted with the medium.
(§3) The cells were seeded in 96 well plate at a density of 1-2×10^4 cells per well. The plate was incubated at 37° C. in a 5% CO2 atmosphere. The following day media was removed and the cells were treated with standard, doxorubicin (0.1-4 μg/ml) or plant extract at different concentrations (100-500 μg/ml). The extract was initially dissolved in 1:1 ratio of ethanol-ethyl acetate mixture and further diluted in medium to get the required concentrations. As plant extracts were dissolved in ethyl acetate and as ethyl acetate is not miscible with cell culture media, a mixture of ethanol-ethyl acetate in a ratio of 1:1 is used for all the cell culture experiments. The final mixture used for treating the cells contained not more than 0.5% of the ethanol-ethyl acetate mixture. Negative controls were treated with the same percentage of ethanol-ethyl acetate mixture.
(§4) The treated plate was incubated at 37° C. in a humidified incubator with 5% CO2 for 24 h. After the incubation period, the media was removed, 100 μl of 0.1 mg/ml MTT reagent was added and incubated at 37° C. in a humidified incubator with 5% CO2 for 1 h till purple MTT formazan crystals were visible under the microscope. The formazan crystals were dissolved by adding 100 μl DMSO and spectrophotometric readings were taken at 540 nm.
(§5) The cytotoxic activity of standard or plant extract was calculated as the percentage of cell growth inhibition by using the following formula.
(§6) Where Acontrol indicates the absorbance of control containing 0.5% ethanol-ethyl acetate mixture. Asample is the absorbance of treated cells at different concentrations. IC50 values (the concentration of sample required for inhibition of 50% of cell growth) were obtained from the regression line.
Further, the most polar band from all the fractions was combined and termed as fraction 29. All the compounds separated along with crude diethyl ether extract were analyzed for their anticancer potential against MDA-MB-231 cells at a concentration of 300 μg/ml using MTT assay as described above. Cytotoxic activity was expressed as percentage inhibition of cells at 300 μg/ml.
(§7) The anticancer potential of the anticancer compound against MDA-MB-231, MCF-7, IMR-32 and HCT-116 cells was evaluated at different concentrations (40, 80, 120, 160 and 200 μg/ml) and different incubation times (24 h, 48 h, 72 h) using MTT assay by the method described above.

[2] = system: estrogen positive breast cancer cells (MCF-7); assay: MTT cell proliferation assay, MCF-7; assay type: cell-based; details: Homo sapiens
Method: as §1, §2, §3, §4, §5, §6, §7

[3] = system: human neuroblastoma cells (IMR-32); assay: MTT cell proliferation assay, IMR-32; assay type: cell-based
Method: as §1, §2, §3, §4, §5, §6, §7

[4] = system: human colon cancer cells (HCT-116); assay: MTT cell proliferation assay, HCT-116; assay type: cell-based
Method: as §1, §2, §3, §4, §5, §6, §7

[5] = system: human peripheral blood lymphocytes; assay: Trypan blue exclusion assay, lymphocyte viability; assay type: cell-based
Method: In order to know the side effects associated with the treatment of anticancer compound, the effect of the anticancer compound on the viability of human peripheral blood lymphocytes was determined using trypan blue exclusion assay. Along with the viability of lymphocytes, the viability of different cancer cells at that particular concentration and incubation time are shown in Table 6.

MDA-MB-231 cells = assay: Gene expression by PCR relative to β-actin, MDA-MB-231; assay type: cell-based, human; details: MDA-MB-231, 96 μg/ml, 72 h
Method: (§8) FIG. 7. Detection of genes by PCR. Lane 1: MDA-MB-231 control cells; lane 2: MDA-MB-231 cells treated with anticancer compound (96 μg/ml) for 72 h; lane 3: IMR-32 control cells; lane 4: IMR-32 cells treated with anticancer compound (87 μg/ml) for 72 h; control cells are treated with 0.2% of ethanol-ethyl acetate mixture at 1:1 ratio.
(§9) Genetic level changes associated with the treatment of anticancer compound in MDA-MB-231 and IMR-32 cells were studied by isolating the RNA, reverse transcribing the RNA to cDNA, amplifying the genes using specific primers. The resulting bands were analyzed using image J and the expression of each gene was represented as relative gene expression using the β-actin gene as a control.

IMR-32 cells [6] = assay: Gene expression by PCR relative to β-actin, IMR-32; assay type: cell-based, human; details: IMR-32, 87 μg/ml, 72 h
Method: as §8, §9

MDA-MB-231 = assay: Cell cycle progression, MDA-MB-231; assay type: cell-based, human
IMR-32 cells [7] = assay: Cell cycle progression, IMR-32; assay type: cell-based, human
lymphocytes = details: 1 μg/ml, 24 h; cited from earlier work

Work on `Cc1cnc(-c2ccc(CCCCCCCC(C)C)cc2)c(C)c1C` [Compound 16, 3,4,5-trimethyl-2-(4-(8-methylnonyl)phenyl)pyridine] yielded a viability at 300 µg/mL ([1]; MDA-MB-231, 300 μg/ml, 72 h, read-out: Viability percentage MDA-MB-231) of 0%, a viability at 350 µg/mL ([1]; MDA-MB-231, 350 μg/ml, 48 h, read-out: Viability percentage MDA-MB-231) of 0% and a viability at 400 µg/mL ([1]; MDA-MB-231, 400 μg/ml, 24 h, read-out: Viability percentage MDA-MB-231) of 0%. It also gave an IC50 ([1]; MDA-MB-231, 24 h) of 199.2 ± 0.5 µg/mL (≈ 590 µM), an IC50 ([1]; MDA-MB-231, 48 h) of 99.1 ± 1.6 µg/mL (≈ 294 µM) and an IC50 ([1]; MDA-MB-231, 72 h) of 96.2 ± 1.75 µg/mL (≈ 285 µM). For the same compound, the inhibition at 300 µg/mL ([1]; MDA-MB-231 cells, 300 μg/ml, read-out: Percentage Inhibition) was 94.54 ± 0.59%, the IC50 ([2]; MCF7, 24 h) was 243 µg/mL (≈ 719 µM) and the IC50 ([2]; MCF7, 48 h) was 183 ± 6.29 µg/mL (≈ 543 µM). It also gave an IC50 ([2]; MCF7, 72 h) of 155 ± 5.24 µg/mL (≈ 458 µM), a viability at 300 µg/mL ([2]; MCF7, 300 μg/ml, 72 h, read-out: Viability percentage MCF-7) of 0% and a viability at 350 µg/mL ([2]; MCF7, 350 μg/ml, 48 h, read-out: Viability percentage MCF-7) of 0%. It also gave a viability at 400 µg/mL ([2]; MCF7, 400 μg/ml, 24 h, read-out: Viability percentage MCF-7) of 0%, a viability at 300 µg/mL ([3]; IMR-32, 300 μg/ml, 72 h, read-out: Viability percentage IMR-32) of 0% and a viability at 350 µg/mL ([3]; IMR-32, 350 μg/ml, 48 h, read-out: Viability percentage IMR-32) of 0%. The viability at 400 µg/mL ([3]; IMR-32, 400 μg/ml, 24 h, read-out: Viability percentage IMR-32) was 0%, the IC50 ([3]; IMR-32, 24 h) was 224 ± 7.21 µg/mL (≈ 663 µM) and the IC50 ([3]; IMR-32, 48 h) was 165.2 ± 0.87 µg/mL (≈ 489 µM). For the same compound, the IC50 ([3]; IMR-32, 72 h) was 87.8 µg/mL (≈ 260 µM), the viability at 300 µg/mL ([4]; HCT-116, 300 μg/ml, 72 h, read-out: Viability percentage HCT-116) was 3.29 ± 3.15% and the viability at 350 µg/mL ([4]; HCT-116, 350 μg/ml, 48 h, read-out: Viability percentage HCT-116) was 0%. It also gave a viability at 400 µg/mL ([4]; HCT-116, 400 μg/ml, 24 h, read-out: Viability percentage HCT-116) of 0%, an IC50 ([4]; HCT-116, 24 h) of 179 ± 6.12 µg/mL (≈ 531 µM) and an IC50 ([4]; HCT-116, 48 h) of 162 ± 5.02 µg/mL (≈ 478 µM). For the same compound, the IC50 ([4]; HCT-116, 72 h) was 159 µg/mL (≈ 470 µM), the “Viability percentage Lymphocytes” value ([5]; 300 μg/ml, 72 h, listed as anticancer compound) was 74.94% and 74.94 ± 1.50% and the “Viability percentage Lymphocytes” value ([5]; 350 μg/ml, 48 h) was 82.11 ± 1.42%. The “Viability percentage Lymphocytes” value ([5]; 400 μg/ml, 24 h, listed as anticancer compound) was 91.04% and 90.40 ± 4.02%, the “Bcl-2 gene expression vs control” value (MDA-MB-231 cells) was “reduced expression levels” and the “IKK-β gene expression vs control” value (MDA-MB-231 cells) was “almost similar in treated and control cells”. The “Nrf2 gene expression vs control” value (MDA-MB-231 cells) was “downregulation”, the “caspase-3 gene expression vs control” value (MDA-MB-231 cells) was “upregulation” and the “p53 gene expression vs control” value (MDA-MB-231 cells) was “reduced”. The “Bcl-2 gene expression vs control” value (IMR-32 cells [6]) was “no change in the expression levels”, the “IKK-β gene expression vs control” value (IMR-32 cells [6]) was “downregulation” and the “Nrf2 gene expression vs control” value (IMR-32 cells [6]) was “reduced expression level”. The “caspase-3 gene expression vs control” value (IMR-32 cells [6]) was “upregulation”, the “p53 gene expression vs control” value (IMR-32 cells [6]) was “reduced” and the “phase at which cell cycle progression is inhibited” value (MDA-MB-231) was “G2/M phase”. The “phase at which cell cycle progression is inhibited” value (IMR-32 cells [7]) was “G1 phase”.
`COc1cccc2c1C(=O)c1c(O)c3c(c(O)c1C2=O)C[C@@](O)(C(=O)CO)C[C@@H]3O[C@H]1C[C@H](N)[C@H](O)[C@H](C)O1` [Doxorubicin, doxorubicin, reference compound] gave an IC50 ([1]; MDA-MB-231, crude extracts 100-500 μg/ml, doxorubicin 0.1-4 μg/ml, 24 h) of 0.83 ± 0.03 µg/mL (≈ 1.53 µM), an IC50 ([2]; MCF7, crude extracts 100-500 μg/ml, doxorubicin 0.1-4 μg/ml, 24 h) of 0.66 ± 0.04 µg/mL (≈ 1.21 µM) and an IC50 ([3]; IMR-32, crude extracts 100-500 μg/ml, doxorubicin 0.1-4 μg/ml, 24 h) of 0.5 µg/mL (≈ 0.92 µM). The IC50 ([4]; HCT-116, crude extracts 100-500 μg/ml, doxorubicin 0.1-4 μg/ml, 24 h) was 0.4 µg/mL (≈ 0.736 µM) and the lymphocyte viability (lymphocytes) was 65%.
